Measurements taken from ChEMBL document CHEMBL4831513, “Discovery of quinazoline derivatives as a novel class of potent and in vivo efficacious LSD1 inhibitors by drug repurposing” (Eur J Med Chem, 2021).
pIC50: −log10 of the molar value. One block for each compound: values may come before it. Calls of active or inactive are those of the source. The calls are words filed in the database; no cut-off is given here.

Assays:
[1] = target: T1, Lysine-specific histone demethylase 1A (Homo sapiens, UniProt O60341)
Description: Inhibition of recombinant full length LSD1 (unknown origin) transfected in Escherichia coli BL21 (DE) using H3K4me2 as substrate by flourescence based analysis

NCI-H1650 = assay: cells; conditions: Homo sapiens, NCI-H1650, 72 h
Description: Antiproliferative activity against human NCI-H1650 cells assessed as cell growth inhibition measured after 72 hrs by MTT assay

[2] = target: Cyclin-dependent kinase 1 (Homo sapiens) (UniProt P06493); assay: Inhibition of CDK1 (unknown origin) at 5 uM using 5-FAM-QSPKKG-CONH2 as a substrate incubated for 60 mins in the presence of ATP by caliper analysis relative to control
Chain of Cyclin-dependent kinase 1 (Homo sapiens) (P06493 whole entry, looked up): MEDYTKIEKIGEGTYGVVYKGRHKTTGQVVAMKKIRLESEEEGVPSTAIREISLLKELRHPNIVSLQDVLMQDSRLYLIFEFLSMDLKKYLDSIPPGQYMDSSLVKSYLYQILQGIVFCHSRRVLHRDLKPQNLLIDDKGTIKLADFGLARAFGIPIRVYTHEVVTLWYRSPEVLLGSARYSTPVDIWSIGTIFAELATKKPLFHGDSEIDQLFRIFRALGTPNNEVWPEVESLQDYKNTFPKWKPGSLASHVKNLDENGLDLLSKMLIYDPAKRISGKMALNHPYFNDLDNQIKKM

MAO-A = target: T2, MAO-A (Homo sapiens, UniProt P21397); assay: Inhibition of N-terminal FLAG-tagged recombinant human MAO-A expressed in baculovirus-infected Sf9 cells at 5 uM using luciferin derivative as substrate pretreated for 15 mins followed by substrate addition and incubated for 60 mins by luciferase assay relative to control; conditions: probe luciferin derivative, time 75 min
T2 sequence (P21397 whole entry): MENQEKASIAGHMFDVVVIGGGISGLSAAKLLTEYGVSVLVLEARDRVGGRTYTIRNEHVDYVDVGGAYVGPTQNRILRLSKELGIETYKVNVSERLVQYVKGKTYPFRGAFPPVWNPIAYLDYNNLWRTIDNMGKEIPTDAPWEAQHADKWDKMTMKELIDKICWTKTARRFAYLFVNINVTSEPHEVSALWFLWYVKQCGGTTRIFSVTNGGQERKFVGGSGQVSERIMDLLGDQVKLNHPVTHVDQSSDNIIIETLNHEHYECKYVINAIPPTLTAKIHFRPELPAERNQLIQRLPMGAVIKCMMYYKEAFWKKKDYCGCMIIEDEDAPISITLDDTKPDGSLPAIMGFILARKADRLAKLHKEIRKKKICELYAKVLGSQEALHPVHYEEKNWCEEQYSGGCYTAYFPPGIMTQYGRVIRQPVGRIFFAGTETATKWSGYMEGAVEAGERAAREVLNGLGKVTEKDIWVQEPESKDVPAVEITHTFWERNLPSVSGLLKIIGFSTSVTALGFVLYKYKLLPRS

[3] = target: Tyrosine-protein kinase BTK (Homo sapiens) (UniProt Q06187); assay: Inhibition of N-terminal GST-fused human full length recombinant BTK expressed in baculovirus-infected Sf21 cells at 5 uM using 5-FAM-EAIYAAPFAKKK as a substrate incubated for 60 mins in the presence of ATP by caliper analysis relative to control
Chain of Tyrosine-protein kinase BTK (Homo sapiens) (Q06187 whole entry, the tested form may be a part): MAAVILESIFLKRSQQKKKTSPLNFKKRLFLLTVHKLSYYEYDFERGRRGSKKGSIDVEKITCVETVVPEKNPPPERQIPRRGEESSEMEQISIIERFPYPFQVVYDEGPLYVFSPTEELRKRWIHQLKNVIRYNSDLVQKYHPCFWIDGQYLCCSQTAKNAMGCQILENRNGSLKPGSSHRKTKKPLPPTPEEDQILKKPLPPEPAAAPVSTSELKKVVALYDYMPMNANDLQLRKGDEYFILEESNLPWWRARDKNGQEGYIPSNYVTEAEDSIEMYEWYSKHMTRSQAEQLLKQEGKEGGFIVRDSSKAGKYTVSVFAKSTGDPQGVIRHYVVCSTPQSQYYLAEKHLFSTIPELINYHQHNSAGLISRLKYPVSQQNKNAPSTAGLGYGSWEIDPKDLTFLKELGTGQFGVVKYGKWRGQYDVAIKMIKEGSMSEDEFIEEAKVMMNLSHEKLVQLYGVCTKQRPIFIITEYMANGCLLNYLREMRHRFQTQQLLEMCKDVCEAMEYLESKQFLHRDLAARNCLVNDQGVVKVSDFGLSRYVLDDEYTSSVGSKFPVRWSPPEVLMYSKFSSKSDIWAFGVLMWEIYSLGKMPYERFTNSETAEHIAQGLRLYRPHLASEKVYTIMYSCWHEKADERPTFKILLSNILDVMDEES

HepG2 = assay: cells; conditions: Homo sapiens, HepG2, 72 h
Description: Antiproliferative activity against human HepG2 cells assessed as cell growth inhibition measured after 72 hrs by MTT assay

NCI-H460 = assay: cells; conditions: Homo sapiens, NCI-H460, 72 h
Description: Antiproliferative activity against human NCI-H460 cells assessed as cell growth inhibition measured after 72 hrs by MTT assay

MCF7 = assay: cells; conditions: Homo sapiens, MCF7, 72 h
Description: Antiproliferative activity against human MCF7 cells assessed as cell growth inhibition measured after 72 hrs by MTT assay

MGC-803 [4] = assay: Induction of apoptosis in human MGC-803 cells assessed as early apoptotic cells at 20 uM measured after 24 hrs by Annexin V-FITC/PI staining based flow cytometry analysis (Rvb= 6.1%); type: functional
MGC-803 [5] = assay: Induction of apoptosis in human MGC-803 cells assessed as early apoptotic cells at 10 uM measured after 24 hrs by Annexin V-FITC/PI staining based flow cytometry analysis (Rvb= 6.1%); type: functional
BGC-823 = assay: cells; conditions: Homo sapiens, BGC-823, 72 h
Description: Antiproliferative activity against human BGC-823 cells assessed as cell growth inhibition measured after 72 hrs by MTT assay

MGC-803 [6] = assay: Induction of apoptosis in human MGC-803 cells assessed as late apoptotic cells at 5 uM measured after 24 hrs by Annexin V-FITC/PI staining based flow cytometry analysis (Rvb= 3.9%); type: functional
MGC-803 [7] = assay: Induction of apoptosis in human MGC-803 cells assessed as late apoptotic cells at 10 uM measured after 24 hrs by Annexin V-FITC/PI staining based flow cytometry analysis (Rvb= 3.9%); type: functional
ECa-109 cell line = assay: cells; conditions: Homo sapiens, ECa-109, 72 h
Description: Antiproliferative activity against human EC109 cells assessed as cell growth inhibition measured after 72 hrs by MTT assay

MGC-803 [8] = assay: Induction of apoptosis in human MGC-803 cells assessed as early apoptotic cells at 5 uM measured after 24 hrs by Annexin V-FITC/PI staining based flow cytometry analysis (Rvb= 6.1%); type: functional
MGC-803 [9] = assay: Induction of apoptosis in human MGC-803 cells assessed as viable cells at 5 uM measured after 24 hrs by Annexin V-FITC/PI staining based flow cytometry analysis (Rvb= 89%); type: functional; conditions: read-out: Activity
PC-3 = assay: cells; conditions: Homo sapiens, PC-3, 72 h
Description: Antiproliferative activity against human PC-3 cells assessed as cell growth inhibition measured after 72 hrs by MTT assay

MGC-803 [10] = assay: Induction of apoptosis in human MGC-803 cells assessed as necrotic cells at 10 uM measured after 24 hrs by Annexin V-FITC/PI staining based flow cytometry analysis (Rvb= 1%); type: functional
[11] = target: T1, Lysine-specific histone demethylase 1A; assay: Inhibition of LSD1 in human MGC-803 cells assessed as increase in H3K4me2 expression measured after 24 hrs by western blot analysis; type: cell-based; conditions: dose 5-20 µM
GES1 = assay: cells; conditions: Homo sapiens, GES1, 72 h
Description: Cytotoxicity against human GES1 cells assessed as cell growth inhibition measured after 72 hrs by MTT assay

MGC-803 [12] = assay: Induction of apoptosis in human MGC-803 cells assessed as live cells at 10 uM measured after 24 hrs by Annexin V-FITC/PI staining based flow cytometry analysis (Rvb= 89%); type: functional
MGC-803 [13] = assay: Induction of apoptosis in human MGC-803 cells assessed as necrotic cells at 20 uM measured after 24 hrs by Annexin V-FITC/PI staining based flow cytometry analysis (Rvb= 1%); type: functional
MGC-803 [14] = assay: Antitumor activity against human MGC-803 cells xenografted in nude mouse assessed as reduction in tumor weight at 80 mg/kg/day, iv administered for 21 days relative to control; type: functional; conditions: MGC-803, iv, 504 h, time 21 day
MGC-803 [15] = assay: Inhibition of epithelial mesenchymal transition process in human MGC-803 cells assessed as decrease in N-cadherin expression at 0.1 to 0.5 uM measured after 24 hrs western blot analysis; type: functional, cell-based; conditions: dose 0.1-0.5 µM
MGC-803 [16] = assay: Induction of apoptosis in human MGC-803 cells assessed as live cells at 20 uM measured after 24 hrs by Annexin V-FITC/PI staining based flow cytometry analysis (Rvb= 89%); type: functional
MGC-803 [17] = assay: Inhibition of cell migration in human MGC-803 cells at 0.5 uM measured after 48 hrs by transwell assay relative to control; type: functional
MGC-803 [18] = assay: Induction of apoptosis in human MGC-803 cells assessed as necrotic cells at 5 uM measured after 24 hrs by Annexin V-FITC/PI staining based flow cytometry analysis (Rvb= 1%); type: functional
MGC-803 [19] = assay: Inhibition of epithelial mesenchymal transition process in human MGC-803 cells assessed as increase in E-cadherin expression at 0.1 to 0.5 uM measured after 24 hrs western blot analysis; type: functional, cell-based; conditions: dose 0.1-0.5 µM
NCI-H1975 = assay: cells; conditions: Homo sapiens, NCI-H1975, 72 h
Description: Antiproliferative activity against human NCI-H1975 cells assessed as cell growth inhibition measured after 72 hrs by MTT assay

[20] = target: Glycogen synthase kinase-3 beta (Homo sapiens) (UniProt P49841); assay: Inhibition of GSK-3beta (unknown origin) at 5 uM relative to control
Chain of Glycogen synthase kinase-3 beta (Homo sapiens) (P49841 whole entry, looked up): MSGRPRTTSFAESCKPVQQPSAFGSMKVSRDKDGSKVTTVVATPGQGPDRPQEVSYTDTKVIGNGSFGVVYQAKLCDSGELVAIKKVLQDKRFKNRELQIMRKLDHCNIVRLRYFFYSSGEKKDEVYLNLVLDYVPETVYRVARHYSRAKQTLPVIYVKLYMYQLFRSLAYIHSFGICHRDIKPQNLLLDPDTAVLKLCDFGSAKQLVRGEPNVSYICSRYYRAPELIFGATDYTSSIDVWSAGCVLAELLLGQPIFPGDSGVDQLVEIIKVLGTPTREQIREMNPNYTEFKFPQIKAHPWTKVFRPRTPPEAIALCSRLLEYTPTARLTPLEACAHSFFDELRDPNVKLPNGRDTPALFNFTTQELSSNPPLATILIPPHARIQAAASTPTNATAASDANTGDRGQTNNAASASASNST

MGC-803 [21] = assay: Antitumor activity against human MGC-803 cells xenografted in nude mouse assessed as reduction in tumor weight at 40 mg/kg/day, iv administered for 21 days relative to control; type: functional; conditions: MGC-803, iv, 504 h, time 21 day
[22] = target: T1, Lysine-specific histone demethylase 1A; assay: Inhibition of recombinant full length LSD1 (unknown origin) transfected in Escherichia coli BL21 (DE) at 5 uM using H3K4me2 as a substrate by flourescence based analysis relative to control
MGC-803 [23] = assay: Inhibition of clonogenicity in human MGC-803 cells assessed as reduction in colony formation measured after 10 days by crystal violet staining based analysis; type: functional, cell-based; conditions: dose 1-20 µM, time 10.0 day
Homo sapiens = organism: Homo sapiens; assay: Selectivity index, ratio of IC50 for inhibition of EGFR (unknown origin) to IC50 for inhibition of recombinant human full length LSD1 transfected in Escherichia coli BL21 (DE)
MGC-803 [24] = assay: Antitumor activity against human MGC-803 cells xenografted in nude mouse assessed as low cell density in tumor tissue at 40 to 80 mg/kg/day, iv measured after 21 days by H and E staining based histopathological analysis; type: functional, organism-based; conditions: dose 40-80 mg/kg/day, time 21.0 day
[25] = Toxicity in nude mouse xenografted with human MGC-803 cells assessed as body weight loss at 40 to 80 mg/kg/day, iv administered for 21 days; type: organism-based; conditions: in vivo, 504 h, dose 40-80 mg/kg/day, time 21 day
MGC-803 [26] = assay: Antitumor activity against human MGC-803 cells xenografted in nude mouse assessed as chromatin condensation in tumor tissue at 40 to 80 mg/kg/day, iv measured after 21 days by H and E staining based histopathological analysis; type: functional, organism-based; conditions: dose 40-80 mg/kg/day, time 21.0 day
[27] = target: Epidermal growth factor receptor (Homo sapiens, UniProt P00533); assay: Inhibition of EGFR (unknown origin)
Chain of Epidermal growth factor receptor (P00533 whole entry): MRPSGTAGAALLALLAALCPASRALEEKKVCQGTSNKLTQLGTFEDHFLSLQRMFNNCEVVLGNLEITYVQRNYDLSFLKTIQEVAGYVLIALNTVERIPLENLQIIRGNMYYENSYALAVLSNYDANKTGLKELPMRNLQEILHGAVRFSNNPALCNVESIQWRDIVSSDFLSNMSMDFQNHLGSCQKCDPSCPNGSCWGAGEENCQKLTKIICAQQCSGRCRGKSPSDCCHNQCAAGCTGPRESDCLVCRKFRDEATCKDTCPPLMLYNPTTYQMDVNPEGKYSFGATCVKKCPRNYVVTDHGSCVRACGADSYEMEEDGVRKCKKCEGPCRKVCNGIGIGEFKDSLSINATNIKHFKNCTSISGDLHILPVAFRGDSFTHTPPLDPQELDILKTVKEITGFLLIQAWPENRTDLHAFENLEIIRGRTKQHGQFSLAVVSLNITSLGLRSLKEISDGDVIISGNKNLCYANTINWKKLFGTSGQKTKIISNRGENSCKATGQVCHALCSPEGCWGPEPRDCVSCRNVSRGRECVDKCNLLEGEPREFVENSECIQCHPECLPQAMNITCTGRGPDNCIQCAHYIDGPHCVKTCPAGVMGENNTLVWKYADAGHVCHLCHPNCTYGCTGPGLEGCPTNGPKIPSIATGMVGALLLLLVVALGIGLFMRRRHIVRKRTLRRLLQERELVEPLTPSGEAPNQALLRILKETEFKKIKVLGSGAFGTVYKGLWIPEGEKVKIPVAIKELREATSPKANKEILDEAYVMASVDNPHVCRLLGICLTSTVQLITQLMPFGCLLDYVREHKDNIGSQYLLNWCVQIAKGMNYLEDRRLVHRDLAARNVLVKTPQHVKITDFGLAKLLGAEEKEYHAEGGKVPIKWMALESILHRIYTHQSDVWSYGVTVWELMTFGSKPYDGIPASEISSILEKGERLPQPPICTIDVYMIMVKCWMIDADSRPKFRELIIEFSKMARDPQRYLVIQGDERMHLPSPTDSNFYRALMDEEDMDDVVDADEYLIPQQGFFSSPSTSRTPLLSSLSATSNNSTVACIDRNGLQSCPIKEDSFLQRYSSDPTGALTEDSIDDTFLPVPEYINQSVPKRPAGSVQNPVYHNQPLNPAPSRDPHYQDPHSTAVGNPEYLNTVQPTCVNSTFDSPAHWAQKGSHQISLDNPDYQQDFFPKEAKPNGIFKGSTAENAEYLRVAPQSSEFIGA

MGC-803 [28] = assay: Antitumor activity against human MGC-803 cells xenografted in nude mouse assessed as inhibition of tumor growth at 40 to 80 mg/kg/day, iv administered for 21 days; type: functional, organism-based; conditions: dose 40-80 mg/kg/day, time 21.0 day
[29] = Ocular toxicity in nude mouse xenografted with human MGC-803 cells at 40 to 80 mg/kg/day, iv administered for 21 days; type: organism-based; conditions: in vivo, 504 h, dose 40-80 mg/kg/day, time 21 day
MGC-803 [30] = assay: cells; conditions: Homo sapiens, MGC-803, 72 h
Description: Antiproliferative activity against human MGC-803 cells assessed as cell growth inhibition measured after 72 hrs by MTT assay

[31] = Aqueous solubility of the compound in water; type: physicochemical
MGC-803 [32] = assay: Induction of apoptosis in human MGC-803 cells assessed as late apoptotic cells at 20 uM measured after 24 hrs by Annexin V-FITC/PI staining based flow cytometry analysis (Rvb= 3.9%); type: functional
MGC-803 [33] = assay: Antitumor activity against human MGC-803 cells xenografted in nude mouse assessed as pyknosis in tumor tissue at 40 to 80 mg/kg/day, iv measured after 21 days by H and E staining based histopathological analysis; type: functional, organism-based; conditions: dose 40-80 mg/kg/day, time 21.0 day
MAO-B = target: T3, MAO-B (Homo sapiens, UniProt P27338); assay: Inhibition of N-terminal FLAG-tagged recombinant human MAO-B expressed in baculovirus-infected Sf9 cells at 5 uM using luciferin derivative as substrate pretreated for 15 mins followed by substrate addition and incubated for 60 mins by luciferase assay relative to control; conditions: probe luciferin derivative, time 75 min
T3 sequence (P27338 whole entry): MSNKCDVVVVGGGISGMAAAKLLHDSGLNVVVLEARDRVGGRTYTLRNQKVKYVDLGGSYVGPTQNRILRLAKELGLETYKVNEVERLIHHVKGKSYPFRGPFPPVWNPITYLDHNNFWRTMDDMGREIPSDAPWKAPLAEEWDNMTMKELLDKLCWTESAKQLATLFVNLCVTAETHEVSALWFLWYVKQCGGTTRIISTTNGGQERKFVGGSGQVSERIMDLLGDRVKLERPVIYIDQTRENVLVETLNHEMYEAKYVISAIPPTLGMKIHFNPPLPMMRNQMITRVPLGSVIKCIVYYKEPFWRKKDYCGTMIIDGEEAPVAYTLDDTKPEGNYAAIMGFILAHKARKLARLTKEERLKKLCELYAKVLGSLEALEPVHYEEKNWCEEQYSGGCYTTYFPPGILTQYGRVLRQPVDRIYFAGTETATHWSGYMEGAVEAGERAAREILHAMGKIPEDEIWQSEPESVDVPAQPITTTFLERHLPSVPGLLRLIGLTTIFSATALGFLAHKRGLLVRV

MGC-803 [34] = assay: Inhibition of clonogenicity in human MGC-803 cells assessed as reduction in colony formation at 10 uM measured after 10 days by crystal violet staining based analysis relative to control; type: functional; conditions: MGC-803, 240 h, time 10 day

pIC50 [1]: < 4.30
Compound: C#Cc1cccc(Nc2ncnc3ccccc23)c1

pIC50 [1]: < 4.30
Compound: COCCOc1cc2ncnc(Nc3ccc(Br)cc3)c2cc1OCCOC

pIC50 [1]: < 4.30
Compound: COCCOc1cc2ncnc(Sc3nnnn3-c3ccccc3)c2cc1OCCOC

pIC50 (NCI-H1650): 4.76 | pIC50 [1]: 6.16 | inhibition [2]: < 2% | inhibition at 1.25 h, 5 µM (MAO-A): 15% | inhibition [3]: < 2% | pIC50 (HepG2): 4.79 | pIC50 (NCI-H460): 4.55 | pIC50 (MCF7): 4.41 | pIC50 (BGC-823): 4.81 | pIC50 (ECa-109 cell line): 5.02 | pIC50 (PC-3): < 4.30 | inhibition [11]: Dose-Dependent Effect | pIC50 (GES1): < 4.30 | pIC50 (NCI-H1975): 4.58 | inhibition [20]: 13% | inhibition [22]: 97% | Ratio IC50 (Homo sapiens): 7.5 | pIC50 [27]: 5.28 | pIC50 (MGC-803 [30]): 5.04 | solubility [31]: > 100 mg/mL | inhibition at 1.25 h, 5 µM (MAO-B): 18%
Compound: COCCOc1cc2ncnc(Sc3nc[nH]n3)c2cc1OCCOC
Activity (MGC-803 [4]): 31.2% | Activity (MGC-803 [5]): 13.3% | Activity (MGC-803 [6]): 20.9% | Activity (MGC-803 [7]): 29.3% | Activity (MGC-803 [8]): 10.3% | viability at 5 µM (MGC-803 [9]): 68.4% | Activity (MGC-803 [10]): 2.2% | Activity (MGC-803 [12]): 55.1% | Activity (MGC-803 [13]): 2.3% | inhibition in vivo at 80 mg/kg/day (MGC-803 [14]): 96.1% | inhibition (MGC-803 [15]): Active | Activity (MGC-803 [16]): 20.6% | inhibition at 0.5 µM (MGC-803 [17]): 70% | Activity (MGC-803 [18]): 0.4% | inhibition (MGC-803 [19]): Active | inhibition in vivo at 40 mg/kg/day (MGC-803 [21]): 81.6% | inhibition (MGC-803 [23]): Dose-Dependent Effect | Activity (MGC-803 [24]): Active | Activity [25]: Non-Toxic | Activity (MGC-803 [26]): Active | Activity (MGC-803 [28]): Active | Activity [29]: Non-Toxic | Activity (MGC-803 [32]): 45.8% | Activity (MGC-803 [33]): Active | inhibition at 10 µM (MGC-803 [34]): > 90%
